We go through three compounds from patent US8252942B2, “Substituted imidazoline compounds” (Board of Trustees of Michigan State University, priority 2008, dated 2012).

In data set [1] the test system is white blood cells (lymphocytes) in human blood. Briefly: Cytotoxicity towards lymphocytes in human blood. In kind it is cell-based. Conditions: human blood exposed 24 hours, lymphocyte survival, effective concentrations (<20 μM) (FIG. 11). Here is the method: Human blood was exposed to TCH-013 (imidazoline 1) for 24 hours at various concentrations and the lymphocytes were evaluated for survival.
(§1) Given the critical role NF-κB-mediated IL-6 production plays in the growth and […] of multiple myeloma, we investigated the use of TCH-013 in somewhat more detail in a MM cell line (RPMI-8226).

Data set [2] concerns RPMI-8226 cells. The experiment in a line: Cell death in multiple myeloma cells, MTS assay. The class given is cell-based. Conditions: Homo sapiens, RPMI-8226, 24 h. Here is the method:
RPMI-8226 cells were treated with various concentrations of TCH-013 in duplicate and incubated for 24 hours. Percent survival was extrapolated based on mitochondrial activity as determined by MTS assay.
as §1
(In general: Tetrazolium assays rely on reduction of a dye to a coloured formazan, in cell work by metabolically active cells.)

In general, CC50 refers to the concentration at which the toxic effect on the cells reaches its halfway point. Read a high CC50 as better tolerance by the cells. As to `CCOC(=O)[C@@]1(c2ccccc2)N=C(c2ccccc2)N(Cc2ccccc2)[C@H]1c1ccccc1` (racemic) [TCH-013], the “cytotoxicity towards white blood cells” value in data set [1] is on record as “no significant cytotoxicity”. The compound further returned a CC50 in data set [2] of 4 µM.

Turning to `COc1cccc2c1C(=O)c1c(O)c3c(c(O)c1C2=O)C[C@@](O)(C(=O)CO)C[C@@H]3O[C@H]1C[C@H](N)[C@H](O)[C@H](C)O1` [doxorubicin], in data set [2], half-maximal cytotoxicity (CC50) was put at 1.2 µM.

As for `N[C@@H](Cc1ccc(N(CCCl)CCCl)cc1)C(=O)O` [melphalan], in data set [2], the midpoint of cytotoxicity, the CC50, lay at 30.6 µM.
